# Test results: US5245034A, “Compound having vessel smooth muscle relaxation activity” (Hidaka; Kiroyoshi, priority 1988, dated 1993)
# How the values were obtained:
# [1] = molecular target: Calmodulin-Dependent Phosphodiesterase (Ca^2+ PDE); assay: Calmodulin-Dependent Phosphodiesterase Inhibition (Ca^2+ PDE); format: biochemical, rat; settings: [^3 H]-cGMP, 30° C.
# Description: Phosphodiesterase (Ca^2+ PDE)Ca^2+ PDE was partially purified from the brain of rat by DEAE-Sepharose column chromatography.
# Calmodulin was purified from the calf brain using a calmodulin inhibitor W-7 affinity column.
# A reaction mixture contained 20 μl of 500 mM Tris-HCl (pH 8.0), 20 μl of 50 mM MgCl2, 20 μl of 2 mM CaCl2 (or 10 mM EGTA), 20 μl of 1 mg/ml bovine serum albumin, PDE, […] of calmodulin, test sample and distilled water to make total volume 200 μl. To the mixture was added 20 μl of 4 μM [^3 H]-cGMP (2.5 μCi/ml), the mixture was incubated at 30° C. for 15 minutes, and then heated in boiling water for 3 to 5 minutes to terminate the reaction, and cooled in ice-water bath. 20 μg of 5'-nucleotidase (Snake venum) was added to the mixture, and the mixture was again incubated at 30° C. for 10 minutes. After addition of about 2 ml of water, the sample was applied to a cation exchange resin column (Biorad AG.AG50W-X4 to adsorbe the [^3 H]-guanosine and additionally about 2 ml of washing water for the sample was added to the column. The column was washed with about 20 ml of water, and the adsorbed [^3 H]-guanosine was eluted with 3 ml of 3N NH4 OH, and the elute was directly received by a vial. After an addition of 10 ml of an emulsified scintillation solution (ACS-II, AMERSHAM) the radio activity was measured by a scintillation counter LS7500 (Beckmann). The enzyme activity in the presence of calmodulin was taken as […], and a concentration of a test compound in μM which provides a 50% inhibition was expressed as IC50.
# [2] = tested on: superior mesenteric artery (contracted by potassium chloride); assay: Vessel Smooth Muscle Relaxation Action (V.R.); format: cell-based, rabbit; settings: Oryctolagus cuniculus; concentration relaxing KCl-contracted strain to 50%; cumulative administration; read-out: V.R. (ED50)
# Description: The specimen was suspended by loading a strain in Krebs-Henseleit solution through which an oxygen gas containing 5% carbon dioxide was bubbled. The specimen was contracted by adding potassium chloride to maintain a predetermined strain. Thereafter, a test compound was cumulatively administrated.
SMILES,IC50 [1] [µM],EC50 [2] [µM]
"CN(c1ccc(CC(C(=O)N2CCN(c3ccccc3)CC2)N(C)S(=O)(=O)c2cccc3cnccc23)cc1)S(=O)(=O)c1cccc2ccccc12 (stereo not shown) [Example 25, 1-{N-(5-isoquinolinesulfonyl)-N-methyl-p-[N'-methyl-N'-(1-naphtharenesulfonyl)amino]phenylalanyl}-4-phenylpiperazine]",70,0.55
"CN(c1ccc(CC(C(=O)N2CCN(c3ccccc3)CC2)N(C)S(=O)(=O)c2cccc3cnccc23)cc1)S(C)(=O)=O (stereo not shown) [Example 24, 1-[N-(5-isoquinolinesulfonyl)-p-(N'-methanesulfonyl-N'-methylamino) N-methylphenylalanyl]-4-phenylpiperazine]",63,8.3
"O=S(=O)(NCCNCC=CC=Cc1ccc(C(F)(F)F)cc1)c1cccc2cnccc12 [Example 180, N-{2-[5-(4-Trifluoromethylphenyl)-2,4-Pentadienylamino]Ethyl}-5-Isoquinolinesulfonamide]",4.8,1.8
"O=S(=O)(NCCNCC=Cc1ccc(F)cc1)c1cccc2cnccc12 [Example 175, N-[2-(4-Fluorocinnamylamino)ethyl]-5-Isoquinolinesulfonamide]",13,2
"O=S(=O)(Nc1ccccc1NCC=Cc1ccc(Cl)cc1)c1cccc2cnccc12 [Example 142, N-[2-(4-Chlorocinnamylamino)Phenyl]-5-Isoquinolinesulfonamide]",1.1,6.8
"CN(c1ccc(CC(C(=O)N2CCN(c3ccccc3)CC2)N(C)S(=O)(=O)c2cccc3cnccc23)cc1)S(=O)(=O)c1cccc2cnccc12 (stereo not shown) [Example 23, 1-{N-(5-Isoquinolinesulfonyl)-P-[N'-(5-Isoquinolinesulfonyl)-N'-Methylamino]-N-Methylphenylalanyl}-4-Phenylpiperazine]",66,0.25
"O=C(CCc1ccccc1)N1CCCN(CC(Cc2ccc(O)cc2)NS(=O)(=O)c2cccc3cnccc23)CC1 (stereo not shown) [Example 119, N-{1-(P-Hydroxybenzyl)-2-[4-(3-Phenylpropionyl)Homopiperazinyl]Ethyl}-5-Isoquinolinesulfonylamide]",51,11
"CN(c1ccccc1NCC=Cc1ccc(Cl)cc1)S(=O)(=O)c1cccc2cnccc12 [Example 143, N-[2-(4-Chlorocinnamylamino)Phenyl]-N-Methyl-5 -Isoquinolinesulfonamide]",15,0.82
O=S(=O)(c1cccc2cnccc12)N(CC#Cc1ccc(Cl)cc1)CCNCC#Cc1ccc(Cl)cc1 [Example 189-III],1,0.29
"CN(C(Cc1ccc(O)cc1)CN1CCCN(c2ccccc2)CC1)S(=O)(=O)c1cccc2cnccc12 (stereo not shown) [Example 83, N-[1-(P-Hydroxybenzyl)-2-(4-Phenylhomopiperazinyl)Ethyl]-N-Methyl-5-Isoquinolinesulfonamide]",24,0.39
"CN(C(Cc1ccc(O)cc1)CN1CCC(OCc2ccc(Cl)c(Cl)c2)CC1)S(=O)(=O)c1cccc2cnccc12 (stereo not shown) [Example 90, N-{2-[4-(3,4-Dichlorobenzyloxy)Piperidino]-1-(P-Hydroxybenzyl)Ethyl}-N-Methyl-5-Isoquinolinesulfonamide]",3.4,0.33
"O=C([C@H](Cc1ccc(O)cc1)NS(=O)(=O)c1cccc2cnccc12)N1CCN(c2ccccc2)CC1 [Example 111, 1-[N-(5-isoquinolinesulfonyl)tyrosyl]-4-phenylpiperazine]",77,7
"CN(C(Cc1cnc[nH]1)CN1CCN(c2ccccc2)CC1)S(=O)(=O)c1cccc2cnccc12 (stereo not shown) [Example 4, N-[1-(Imidazol-4(5)-Yl-Methyl)-2-(4 -Phenylpiperazinyl)Ethyl]-N-Methyl-5-Isoquinoline Sulfonamide]",53,12
"CN([C@@H](Cc1ccc(OS(=O)(=O)c2cccc3cnccc23)cc1)C(=O)N1CCN(c2ccccc2)CC1)S(=O)(=O)c1cccc2cnccc12 [Example 109, 1-[N,O-Bis(5-Isoquinolinesulfonyl)-N-Methyltyrosyl]-4-Phenylpiperazine]",1.3,0.59
"CN(C(Cc1ccc(O)cc1)CN1CCC(c2ccccc2)CC1)S(=O)(=O)c1cccc2cnccc12 (stereo not shown) [Example 93, N-[1-(p-hydroxybenzyl)-2-(4-phenylpiperidino)ethyl]-N-methyl-5-isoquinolinesulfonamide]",3.4,0.31

# Further compounds by falling IC50 [1], results first:
IC50 [1] [µM],EC50 [2] [µM],SMILES
63,0.25,"CN(C(Cc1ccc(O)cc1)CN1CCN(c2ccccc2)CC1)S(=O)(=O)c1cccc2ccccc12 (stereo not drawn) [Example 58, N-[1-(p-hydroxybenzyl)-2-(4-phenylpiperazinyl)ethyl]-N-methyl-α-naphtharenesulfonamide]"
61,2.8,"CN(C(Cc1ccc(OS(=O)(=O)c2cccc3cnccc23)cc1)CN1CCC(O)CC1)S(=O)(=O)c1cccc2cnccc12 (stereo not shown) [Example 99, N-{2-(4-Hydroxypiperidino)-1-[P-(5-Isoquinolinesulfonyloxy)Benzyl]Ethyl}-N-Methyl-5-Isoquinolinesulfonamide]"
33,0.86,"O=S(=O)(NC(Cc1ccc(O)cc1)CN1CCCN(c2ccccc2)CC1)c1cccc2cnccc12 (stereo not shown) [Example 82, N-[1-(P-Hydroxybenzyl)-2-(4-Phenylhomopiperazinyl)Ethyl]-5-Isoquinolinesulfonamide]"
28,8.9,"Cc1ccc(CN(C(Cc2ccc(O)cc2)CN2CCC(O)CC2)S(=O)(=O)c2cccc3cnccc23)cc1 (stereo not shown) [Example 106, N-[1-(P-Hydroxybenzyl)-2-(4-Hydroxypiperidino)Ethyl]-N-P-Methylbenzyl-5-Isoquinolinesufonamide]"
26,1.9,"O=S(=O)(c1cccc2cnccc12)N1CCN(CC=Cc2ccc(Cl)cc2)CC1 [Example 191, 1-(4-Chlorocinnamyl)-4-(5-Isoquinolinesulfonyl)Piperazine]"
15,1.2,"CN(C(Cc1ccc(N)cc1)C(=O)N1CCN(c2ccccc2)CC1)S(=O)(=O)c1cccc2cnccc12 (stereo not shown) [Example 13, 1-[P-Amino-N-(5-Isoquinolinesulfonyl)-N-Methylalanyl]-4-Phenylpiperazine]"
13,2.4,O=S(=O)(NC(Cc1ccc(OS(=O)(=O)c2cccc3cnccc23)cc1)CN1CCCN(c2ccccc2)CC1)c1cccc2cnccc12 (stereo not shown) [Example 80]
12,2.8,"O=S(=O)(NCCNCC=Cc1cccc2ccccc12)c1cccc2cnccc12 [Example 184, N-{2-[3-(1-Naphthyl)-2-Propenylamino]ethyl}-5-Isoquinolinesulfonamide]"
10,1.2,"O=C([C@H](Cc1ccc(OS(=O)(=O)c2cccc3cnccc23)cc1)NS(=O)(=O)c1cccc2cnccc12)N1CCN(c2ccccc2)CC1 [Example 108, 1-[N,O-Bis(5-Isoquinolinesulfonyl)Tyrosyl]-4-Phenylpiperazine]"
2.7,0.22,"O=S(=O)(NCCNCC#Cc1ccc(Cl)cc1)c1cccc2cnccc12 [Example 189-I, N-{2-[3-(4-Chlorophenyl)-2-Propynylamino]Ethyl}-5-Isoquinolinesulfonamide]"
1,1.8,"O=S(=O)(c1cccc2cnccc12)N1CCN(CC=Cc2ccc(Cl)cc2)c2ccccc21 [Example 144, 1-(4-Chlorocinnamyl)-4-(5-Isoquinolinesulfonyl)-1,2,3,4-Tetrahydroquinoxaline]"
